Assay results taken from ChEMBL document CHEMBL1201862, “PubChem BioAssay data set” (2004).
Active and inactive are the calls of the source. Rule as the data show it, for most assays here: actives have a measured IC50 and inactives only a lower limit.

Experiments:
[1] = biological target: T1, Sentrin-specific protease 7 (Homo sapiens, UniProt Q9BQF6); format: functional;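 also: Luminescence-based dose-response confirmation of ultra-high-throughput screening hits, measuring inhibition of SENP7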
T1 sequence (Q9BQF6 whole entry): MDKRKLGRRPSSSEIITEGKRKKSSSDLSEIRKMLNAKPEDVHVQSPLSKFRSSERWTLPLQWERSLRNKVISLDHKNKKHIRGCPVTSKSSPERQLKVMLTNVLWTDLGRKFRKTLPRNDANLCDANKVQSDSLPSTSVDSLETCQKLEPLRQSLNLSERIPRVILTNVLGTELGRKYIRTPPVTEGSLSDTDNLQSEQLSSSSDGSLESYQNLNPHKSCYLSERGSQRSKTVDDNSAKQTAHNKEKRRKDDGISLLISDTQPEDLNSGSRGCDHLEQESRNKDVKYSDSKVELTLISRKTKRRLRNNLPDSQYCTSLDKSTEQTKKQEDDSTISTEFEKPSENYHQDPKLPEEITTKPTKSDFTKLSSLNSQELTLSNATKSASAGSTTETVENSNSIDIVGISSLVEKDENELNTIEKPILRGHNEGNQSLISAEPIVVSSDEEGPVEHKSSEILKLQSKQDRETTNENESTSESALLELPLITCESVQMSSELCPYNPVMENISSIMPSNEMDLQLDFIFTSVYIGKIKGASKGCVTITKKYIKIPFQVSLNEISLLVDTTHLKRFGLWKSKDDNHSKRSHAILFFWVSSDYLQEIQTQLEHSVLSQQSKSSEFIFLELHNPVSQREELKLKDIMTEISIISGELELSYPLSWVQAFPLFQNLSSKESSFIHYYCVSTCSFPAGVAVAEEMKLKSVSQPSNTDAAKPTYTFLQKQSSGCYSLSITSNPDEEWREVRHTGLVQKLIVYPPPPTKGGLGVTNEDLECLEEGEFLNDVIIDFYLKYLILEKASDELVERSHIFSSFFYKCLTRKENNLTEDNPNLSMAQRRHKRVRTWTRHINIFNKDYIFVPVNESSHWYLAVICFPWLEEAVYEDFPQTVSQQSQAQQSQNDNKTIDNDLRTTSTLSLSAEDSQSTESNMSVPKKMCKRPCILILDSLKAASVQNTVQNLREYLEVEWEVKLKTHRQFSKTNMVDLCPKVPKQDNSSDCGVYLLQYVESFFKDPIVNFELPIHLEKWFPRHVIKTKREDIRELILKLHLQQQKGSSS

[2] = biological target: T2, Sentrin-specific protease 8 (Homo sapiens, UniProt Q96LD8); format: functional;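 also: luminescence read-out of SENP8 inhibition, dose-response confirmation following an ultra-high-throughput screen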
T2 sequence (Q96LD8 whole entry): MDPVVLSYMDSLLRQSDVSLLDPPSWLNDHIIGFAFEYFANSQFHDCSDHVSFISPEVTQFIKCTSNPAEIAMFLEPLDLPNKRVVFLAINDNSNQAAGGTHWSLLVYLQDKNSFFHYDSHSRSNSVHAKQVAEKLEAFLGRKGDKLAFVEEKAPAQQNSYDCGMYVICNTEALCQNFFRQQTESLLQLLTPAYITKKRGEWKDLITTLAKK

Caspase-3 = biological target: T3, Caspase-3 (Homo sapiens, UniProt P42574); format: functional;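 also: Dose-response selectivity test against caspase-3 for candidate inhibitors of sentrin-specific proteases (SENPs)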
T3 sequence (P42574 whole entry): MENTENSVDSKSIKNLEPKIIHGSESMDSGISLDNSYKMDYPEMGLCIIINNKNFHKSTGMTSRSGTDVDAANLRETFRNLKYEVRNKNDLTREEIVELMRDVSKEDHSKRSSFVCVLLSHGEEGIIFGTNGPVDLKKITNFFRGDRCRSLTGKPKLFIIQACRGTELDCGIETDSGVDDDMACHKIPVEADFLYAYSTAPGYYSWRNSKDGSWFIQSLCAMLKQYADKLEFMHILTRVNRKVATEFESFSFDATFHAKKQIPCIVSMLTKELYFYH

[3] = biological target: T4, Histone-lysine N-methyltransferase NSD2 (Homo sapiens, UniProt O96028); format: biochemical
T4 sequence (O96028 whole entry): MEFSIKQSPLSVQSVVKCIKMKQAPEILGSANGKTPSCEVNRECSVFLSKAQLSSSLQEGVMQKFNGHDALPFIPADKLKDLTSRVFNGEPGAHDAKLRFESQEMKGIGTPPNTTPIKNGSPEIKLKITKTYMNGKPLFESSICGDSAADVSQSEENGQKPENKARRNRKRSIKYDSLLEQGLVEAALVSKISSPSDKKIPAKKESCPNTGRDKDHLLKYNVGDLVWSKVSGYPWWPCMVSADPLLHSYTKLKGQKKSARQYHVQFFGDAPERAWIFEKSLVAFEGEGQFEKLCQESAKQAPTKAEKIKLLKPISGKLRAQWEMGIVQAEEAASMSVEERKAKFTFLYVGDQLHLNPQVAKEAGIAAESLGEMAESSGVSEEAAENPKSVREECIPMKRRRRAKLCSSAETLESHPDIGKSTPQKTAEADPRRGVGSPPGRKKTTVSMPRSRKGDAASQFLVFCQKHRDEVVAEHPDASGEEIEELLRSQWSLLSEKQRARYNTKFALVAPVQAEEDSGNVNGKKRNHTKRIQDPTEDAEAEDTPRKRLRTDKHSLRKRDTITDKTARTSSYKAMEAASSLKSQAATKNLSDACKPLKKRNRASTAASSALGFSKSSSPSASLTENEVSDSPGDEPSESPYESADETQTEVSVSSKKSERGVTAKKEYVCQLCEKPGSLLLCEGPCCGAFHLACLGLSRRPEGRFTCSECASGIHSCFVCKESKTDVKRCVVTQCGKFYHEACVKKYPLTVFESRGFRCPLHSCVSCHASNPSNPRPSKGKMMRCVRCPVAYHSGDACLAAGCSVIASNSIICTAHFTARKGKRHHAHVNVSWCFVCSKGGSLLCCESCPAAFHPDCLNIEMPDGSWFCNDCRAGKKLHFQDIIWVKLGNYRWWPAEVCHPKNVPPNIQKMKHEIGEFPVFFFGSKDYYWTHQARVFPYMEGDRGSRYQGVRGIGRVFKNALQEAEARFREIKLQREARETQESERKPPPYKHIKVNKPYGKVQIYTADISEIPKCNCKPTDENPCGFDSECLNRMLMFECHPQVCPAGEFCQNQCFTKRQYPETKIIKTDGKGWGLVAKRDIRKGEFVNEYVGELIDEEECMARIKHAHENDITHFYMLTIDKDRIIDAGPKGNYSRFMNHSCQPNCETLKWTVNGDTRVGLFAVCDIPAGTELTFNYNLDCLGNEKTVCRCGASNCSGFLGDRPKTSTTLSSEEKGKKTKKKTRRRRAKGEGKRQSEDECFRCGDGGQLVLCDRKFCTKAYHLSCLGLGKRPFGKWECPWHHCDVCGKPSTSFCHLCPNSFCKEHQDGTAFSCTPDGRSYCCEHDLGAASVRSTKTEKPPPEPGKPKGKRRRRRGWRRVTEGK

| Compound | IC50 [1] | IC50 [2] | IC50 (Caspase-3) | AC50 [3] |
| --- | --- | --- | --- | --- |
| COc1cc2c(cc1OC)-c1c(OC)c(OC)cc3c1[C@H](C2)N(C)CC3 | 7.64 µM (active) | 5.13 µM (active) | < 1.55 µM (active) | – |
| O=C1C(Cl)=C(N2CCC(C(=O)O)CC2)C(=O)c2ccccc21 | 29.1 µM (active) | 20.2 µM (active) | 15.6 µM (active) | 1.46 µM (active) |
| COC1=C(c2ccccc2)C(=O)c2ccccc2C1=O | – | – | – | > 20 µM (inactive) |
